# Laboratory results taken from ChEMBL document CHEMBL3045420, “Regulation of glycogen metabolism by anti-dyslipidemic action of gemfibrozil and cholestyramine in a dyslipidemic-diabetic hamster model” (2008).
# Assays:
# Syrian golden hamster [1] = assay: Antidyslipidemic activity in Mesocricetus auratus (Syrian golden hamster) high fat diet-induced dyslipidemic-diabetic model assessed as increase of insulin secretion per ml of plasma at 500 mg/kg, po qd for 10 days relative to control; format: functional
# Syrian golden hamster [2] = assay: Antidyslipidemic activity in Mesocricetus auratus (Syrian golden hamster) high fat diet-induced dyslipidemic-diabetic model assessed as reduction of triglyceride level in liver at 500 mg/kg, po qd for 10 days relative to control; format: functional
# Syrian golden hamster [3] = assay: Antidyslipidemic activity in Mesocricetus auratus (Syrian golden hamster) high fat diet-induced dyslipidemic-diabetic model assessed as increase of glycogen phosphorylase in muscle by measuring […] release per mg of protein at 500 mg/kg, po qd for 10 days relative to control; format: functional
# Syrian golden hamster [4] = assay: Antidyslipidemic activity in Mesocricetus auratus (Syrian golden hamster) high fat diet-induced dyslipidemic-diabetic model assessed as decrease of LHD in muscle by measuring […] oxidation at 500 mg/kg, po qd for 10 days relative to control; format: functional
# Syrian golden hamster [5] = assay: Antidyslipidemic activity in Mesocricetus auratus (Syrian golden hamster) high fat diet-induced dyslipidemic-diabetic model assessed as increase of hexokinase in muscle by measuring […] release per mg of protein at 500 mg/kg, po qd for 10 days relative to control; format: functional
# Syrian golden hamster [6] = assay: Antidyslipidemic activity in Mesocricetus auratus (Syrian golden hamster) high fat diet-induced dyslipidemic-diabetic model assessed as increase of triglyceride fecal excretion at 500 mg/kg, po qd for 10 days relative to control; format: functional, Feces
# Syrian golden hamster [7] = assay: Antidyslipidemic activity in Mesocricetus auratus (Syrian golden hamster) high fat diet-induced dyslipidemic-diabetic model assessed as reduction of nonesterfied fatty acid level in plasma at 500 mg/kg, po qd for 10 days relative to control; format: functional
# Syrian golden hamster [8] = assay: Antidyslipidemic activity in Mesocricetus auratus (Syrian golden hamster) high fat diet-induced dyslipidemic-diabetic model assessed as increase of lipase activity in muscle at 500 mg/kg, po qd for 10 days relative to control; format: functional
# Syrian golden hamster [9] = assay: Antidyslipidemic activity in Mesocricetus auratus (Syrian golden hamster) high fat diet-induced dyslipidemic-diabetic model assessed as increase of lipase activity in liver at 500 mg/kg, po qd for 10 days relative to control; format: functional
# Syrian golden hamster [10] = assay: Antidyslipidemic activity in Mesocricetus auratus (Syrian golden hamster) high fat diet-induced dyslipidemic-diabetic model assessed as increase of cholic acid fecal excretion at 500 mg/kg, po qd for 10 days relative to control; format: functional, Feces
# Syrian golden hamster [11] = assay: Antidyslipidemic activity in Mesocricetus auratus (Syrian golden hamster) high fat diet-induced dyslipidemic-diabetic model assessed as effect on glycogen synthase in liver by measuring sodium pyruvate release at 500 mg/kg, po qd for 10 days relative to control; format: functional
# Syrian golden hamster [12] = assay: Antidyslipidemic activity in Mesocricetus auratus (Syrian golden hamster) high fat diet-induced dyslipidemic-diabetic model assessed as increase of glucose-6-phosphate level in liver at 500 mg/kg, po qd for 10 days relative to control; format: functional
# Syrian golden hamster [13] = assay: Antidyslipidemic activity in Mesocricetus auratus (Syrian golden hamster) high fat diet-induced dyslipidemic-diabetic model assessed as reduction of triglyceride level in muscle at 500 mg/kg, po qd for 10 days relative to control; format: functional
# Syrian golden hamster [14] = assay: Antidyslipidemic activity in Mesocricetus auratus (Syrian golden hamster) high fat diet-induced dyslipidemic-diabetic model assessed as reduction of total cholesterol level in muscle at 500 mg/kg, po qd for 10 days relative to control; format: functional
# Syrian golden hamster [15] = assay: Antidyslipidemic activity in Mesocricetus auratus (Syrian golden hamster) high fat diet-induced dyslipidemic-diabetic model assessed as increase of glycogen phosphorylase in liver by measuring […] release per mg of protein at 500 mg/kg, po qd for 10 days relative to control; format: functional
# Syrian golden hamster [16] = assay: Antidyslipidemic activity in Mesocricetus auratus (Syrian golden hamster) high fat diet-induced dyslipidemic-diabetic model assessed as increase of cholesterol fecal excretion at 500 mg/kg, po qd for 10 days relative to control; format: functional, Feces
# Syrian golden hamster [17] = assay: Antidyslipidemic activity in Mesocricetus auratus (Syrian golden hamster) high fat diet-induced dyslipidemic-diabetic model assessed as reduction of triglyceride level in plasma at 500 mg/kg, po qd for 10 days relative to control; format: functional
# Syrian golden hamster [18] = assay: Antidyslipidemic activity in Mesocricetus auratus (Syrian golden hamster) high fat diet-induced dyslipidemic-diabetic model assessed as reduction of total cholesterol level in liver at 500 mg/kg, po qd for 10 days relative to control; format: functional
# Syrian golden hamster [19] = assay: Antidyslipidemic activity in Mesocricetus auratus (Syrian golden hamster) high fat diet-induced dyslipidemic-diabetic model assessed as increase of glycogen level in liver at 500 mg/kg, po qd for 10 days relative to control; format: functional
# Syrian golden hamster [20] = assay: Antidyslipidemic activity in Mesocricetus auratus (Syrian golden hamster) high fat diet-induced dyslipidemic-diabetic model assessed as decrease of LHD in liver by measuring […] oxidation at 500 mg/kg, po qd for 10 days relative to control; format: functional
# Syrian golden hamster [21] = assay: Antidyslipidemic activity in Mesocricetus auratus (Syrian golden hamster) high fat diet-induced dyslipidemic-diabetic model assessed as effect on glycogen synthase in muscle by measuring sodium pyruvate release at 500 mg/kg, po qd for 10 days relative to control; format: functional
# Syrian golden hamster [22] = assay: Antidyslipidemic activity in Mesocricetus auratus (Syrian golden hamster) high fat diet-induced dyslipidemic-diabetic model assessed as reduction of total cholesterol level in plasma at 500 mg/kg, po qd for 10 days relative to control; format: functional
# Syrian golden hamster [23] = assay: Antidyslipidemic activity in Mesocricetus auratus (Syrian golden hamster) high fat diet-induced dyslipidemic-diabetic model assessed as increase of glucose-6-phosphatase in liver by measuring […] release per mg of protein at 500 mg/kg, po qd for 10 days relative to control; format: functional
# Syrian golden hamster [24] = assay: Antidyslipidemic activity in Mesocricetus auratus (Syrian golden hamster) high fat diet-induced dyslipidemic-diabetic model assessed as reduction of glycerol level in plasma at 500 mg/kg, po qd for 10 days relative to control; format: functional
# Syrian golden hamster [25] = assay: Antidyslipidemic activity in Mesocricetus auratus (Syrian golden hamster) high fat diet-induced dyslipidemic-diabetic model assessed as increase of cholesterylesters fecal excretion at 500 mg/kg, po qd for 10 days relative to control; format: functional, Feces
# Syrian golden hamster [26] = assay: Antidyslipidemic activity in Mesocricetus auratus (Syrian golden hamster) high fat diet-induced dyslipidemic-diabetic model assessed as reduction of phospholipid level in liver at 500 mg/kg, po qd for 10 days relative to control; format: functional
# Syrian golden hamster [27] = assay: Antidyslipidemic activity in Mesocricetus auratus (Syrian golden hamster) high fat diet-induced dyslipidemic-diabetic model assessed as reduction of glucose level in plasma at 500 mg/kg, po qd for 10 days relative to control; format: functional
# Syrian golden hamster [28] = assay: Antidyslipidemic activity in Mesocricetus auratus (Syrian golden hamster) high fat diet-induced dyslipidemic-diabetic model assessed as increase of deoxycholic acid fecal excretion at 500 mg/kg, po qd for 10 days relative to control; format: functional, Feces
# Syrian golden hamster [29] = assay: Antidyslipidemic activity in Mesocricetus auratus (Syrian golden hamster) high fat diet-induced dyslipidemic-diabetic model assessed as reduction of phospholipid level in muscle at 500 mg/kg, po qd for 10 days relative to control; format: functional
# Syrian golden hamster [30] = assay: Antidyslipidemic activity in Mesocricetus auratus (Syrian golden hamster) high fat diet-induced dyslipidemic-diabetic model assessed as increase of glycogen level in muscle at 500 mg/kg, po qd for 10 days relative to control; format: functional
# Syrian golden hamster [31] = assay: Antidyslipidemic activity in Mesocricetus auratus (Syrian golden hamster) high fat diet-induced dyslipidemic-diabetic model assessed as increase of glucose-6-phosphate level in muscle at 500 mg/kg, po qd for 10 days relative to control; format: functional
# Syrian golden hamster [32] = assay: Antidyslipidemic activity in Mesocricetus auratus (Syrian golden hamster) high fat diet-induced dyslipidemic-diabetic model assessed as increase of nonesterfied fatty acid fecal excretion at 500 mg/kg, po qd for 10 days relative to control; format: functional, Feces
# Syrian golden hamster [33] = assay: Antidyslipidemic activity in Mesocricetus auratus (Syrian golden hamster) high fat diet-induced dyslipidemic-diabetic model assessed as reduction of lipolysis in adipose tissue at 500 mg/kg, po qd for 10 days relative to control; format: functional; design: scale not given: the % may be the effect or the level left
compound,measurement,setting,value
Cc1ccc(C)c(OCCCC(C)(C)C(=O)O)c1 [GEMFIBROZIL],Activity,Syrian golden hamster [1],34 uU/ml
same,Activity,Syrian golden hamster [2],7.92 mg/g
same,Activity,Syrian golden hamster [3],36.11 µM/h
same,Activity,Syrian golden hamster [4],21.73 nmol/min/mg
same,Activity,Syrian golden hamster [5],0.066 µM/min
same,Activity,Syrian golden hamster [6],960 µg/g
same,Activity,Syrian golden hamster [7],1.56 µmol/dL
same,Activity,Syrian golden hamster [8],80%
same,Activity,Syrian golden hamster [9],60%
same,Activity,Syrian golden hamster [10],65.2 µg/g
same,Activity,Syrian golden hamster [11],0.057 nmol/min/mg
same,Activity,Syrian golden hamster [12],0.59 µmol/g
same,Activity,Syrian golden hamster [13],6.3 mg/g
same,Activity,Syrian golden hamster [14],1.25 mg/g
same,Activity,Syrian golden hamster [15],5.6 µM/h
same,Activity,Syrian golden hamster [16],858.81 µg/g
same,Activity,Syrian golden hamster [17],220.86 mg/dL
same,Activity,Syrian golden hamster [18],2.61 mg/g
same,Activity,Syrian golden hamster [19],28.49 mg/g
same,Activity,Syrian golden hamster [20],3.61 nmol/min/mg
same,Activity,Syrian golden hamster [21],0.063 nmol/min/mg
same,Activity,Syrian golden hamster [22],269.72 mg/dL
same,Activity,Syrian golden hamster [23],0.345 µM/min
same,Activity,Syrian golden hamster [24],51.66 mg/dL
same,Activity,Syrian golden hamster [25],258.79 µg/g
same,Activity,Syrian golden hamster [26],10.47 mg/g
same,Activity,Syrian golden hamster [27],57.57 mg/dL
same,Activity,Syrian golden hamster [28],38.48 µg/g
same,Activity,Syrian golden hamster [29],5.14 mg/g
same,Activity,Syrian golden hamster [30],3.6 mg/g
same,Activity,Syrian golden hamster [31],0.2 µmol/g
same,Activity,Syrian golden hamster [32],53.79 µmol/g
same,Activity,Syrian golden hamster [33],19%
